Test results taken from patent publication US10035799B2, “COMT inhibiting methods and compositions” (Lieber Institute for Brain Development, priority 2015, dated 2018).

Target: T1, catechol-O-methyltransferase (COMT) (Homo sapiens, UniProt P21964)
T1 construct: M51A variant) was expressed in HEK 293F cells
T1 sequence (P21964 52-271 limits assumed): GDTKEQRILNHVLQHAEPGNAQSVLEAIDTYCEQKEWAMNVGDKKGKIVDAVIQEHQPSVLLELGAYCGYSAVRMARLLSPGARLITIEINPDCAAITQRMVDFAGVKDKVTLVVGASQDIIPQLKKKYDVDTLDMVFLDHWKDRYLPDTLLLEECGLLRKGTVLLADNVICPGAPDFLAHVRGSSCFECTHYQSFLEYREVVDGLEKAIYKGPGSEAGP
Test: COMT inhibition assay (HTRF, production of S-adenosyl homocysteine)
Type: biochemical
Details: recombinant human COMT, HTRF SAH production; MB-COMT or S-COMT not stated for Table 1
Method: The ability of compounds to inhibit the activity of catechol-O-methyltransferase (COMT) was determined by a homogenous time-resolved fluorescent (HTRF) assay (Lina et al, 2012; kit from CisBio, Codolet, France). This assay measures the production of S-adenosyl homocysteine (SAH) from the methyl donor S-adenosyl methionine. Recombinant human membrane bound COMT (MB-COMT; M51A variant) was expressed in HEK 293F cells using 293Fectin (Life Technologies, Gent, Belgium) and membranes prepared. The membranes were re-suspended in buffer (20 mM Tris/HCl pH 7; 10 mM glycerol; 2 mM MgCl2; 10 mM NaCl), aliquoted and stored at −80° C. Recombinant human soluble COMT(S-COMT), Va1158 variant and a hexa-His tag on the N-terminus, was purified using Ni-NTA chromatography, the His tag removed and stored in buffer as above.
For the human MB-COMT assay, membranes (62 ng/well) were incubated with SAM (20 μM final, CisBio) and dopamine (1.5 μM final; Sigma H8502, Diegem, Belgium) in the presence or absence of varying concentrations (typically 10 concentrations ranging from 10 μM to 0.1 nM) of compound for 40 min at 37° C. in 384-well microtitre plates (10 μl per well final volume). The reaction was terminated by the addition of acylation buffer and the amount of SAH produced determined according to manufacturer's instructions. Specific inhibition as that inhibited by a high concentration of tolcapone (10 μM; synthesised at UCB) and all experiments were validated using a control curve to tolcapone.
The human S-COMT assay was performed as above except that 0.15 ng enzyme/well was incubated with SAM (20 μM final) and dopamine (100 μM final) for 15 min at 37° C. and SAH production determined.
HTRF readings were performed using a Perkin Elmer Envision and results expressed as concentration of SAH produced using a standard curve. Results were analysed using non-linear regression to the 4-parameter logistic equation and pIC50 (−log 10 concentration of drug which inhibits enzyme activity/SAH production by 50%) determined.

Row | Structure (SMILES) | Activity range (pIC50, COMT inhibition)
1 | O=S(=O)(c1ccc(O)c2ncccc12)c1cccc2c1ncn2Cc1ccccc1Cl [Example 28, 5-[1-[(2-chlorophenyl)methyl]benzimidazol-4-yl]sulfonylquinolin-8-ol] | +++ (a pIC50 of above about 7)
2 | O=S(=O)(c1ccncc1)c1ccc(O)c2ncccc12 [Example 17, 5-(4-pyridylsulfonyl)quinolin-8-ol] | ++ (a pIC50 of from about great than 6 to 7)
3 | O=S(=O)(c1ccc(O)c2ncccc12)N1CCCC1c1ccc(F)cc1 (stereo not drawn) [Example 74, 5-[2-(4-fluorophenyl)pyrrolidin-1-yl]sulfonylquinolin-8-ol] | +++ (a pIC50 of above about 7)
4 | CN(Cc1ccc(F)cc1)S(=O)(=O)c1ccc(O)c2ncccc12 [Example 49, N-[(4-fluorophenyl)methyl]-8-hydroxy-N-methyl-quinoline-5-sulfonamide] | +++ (a pIC50 of above about 7)
5 | O=S(=O)(c1ccc(O)c2ncccc12)N1CCN(Cc2ccccc2)CC1 [Example 43, 5-(4-benzylpiperazin-1-yl)sulfonylquinolin-8-ol] | +++ (a pIC50 of above about 7)
6 | O=S(=O)(c1ccc(O)c2ncccc12)N1CCC(O)(c2ccccc2)CC1 [Example 83, 5-[(4-hydroxy-4-phenyl-1-piperidyl)sulfonyl]quinolin-8-ol] | +++ (a pIC50 of above about 7)
7 | O=S(=O)(c1ccc(O)c2ncccc12)N1CCN(c2cccc(Cl)c2Cl)CC1 [Example 97, 5-[4-(2,3-dichlorophenyl)piperazin-1-yl]sulfonylquinolin-8-ol] | ++ (a pIC50 of from about great than 6 to 7)
8 | CC1CN(C(=O)OC(C)(C)C)CCN1S(=O)(=O)c1ccc(O)c2ncccc12 (stereo not drawn) [Example 105, tert-butyl 4-[(8-hydroxy-5-quinolyl)sulfonyl]-3-methyl-piperazine-1-carboxylate] | ++ (a pIC50 of from about great than 6 to 7)
9 | CC(=O)C1(c2ccccc2)CCN(S(=O)(=O)c2ccc(O)c3ncccc23)CC1 [Example 86, 1-[1-[(8-hydroxy-5-quinolyl)sulfonyl]-4-phenyl-4-piperidyl]ethanone] | +++ (a pIC50 of above about 7)
10 | CN1CCN(S(=O)(=O)c2ccc(O)c3ncccc23)CC1 [Example 60, 5-(4-methylpiperazin-1-yl)sulfonylquinolin-8-ol] | ++ (a pIC50 of from about great than 6 to 7)
11 | Cc1ccc(C)c(N2CCN(S(=O)(=O)c3ccc(O)c4ncccc34)CC2)c1 [Example 93, 5-[4-(2,5-dimethylphenyl)piperazin-1-yl]sulfonylquinolin-8-ol] | ++ (a pIC50 of from about great than 6 to 7)
12 | O=C1NCN(c2ccccc2)C12CCN(S(=O)(=O)c1ccc(O)c3ncccc13)CC2 [Example 87, 8-[(8-hydroxy-5-quinolyl)sulfonyl]-1-phenyl-1,3,8-triazaspiro[4.5]decan-4-one] | +++ (a pIC50 of above about 7)
13 | Cc1ccc(S(=O)(=O)c2ccc(O)c3ncccc23)c(C)c1 [Example 10, 5-(2,4-dimethylphenyl)sulfonylquinolin-8-ol] | +++ (a pIC50 of above about 7)
14 | Cc1ccc(CS(=O)(=O)c2ccc(O)c3ncccc23)cc1 [Example 32, 5-(p-tolylmethylsulfonyl)quinolin-8-ol] | ++ (a pIC50 of from about great than 6 to 7)
15 | Cc1cc(S(=O)(=O)N2CCN(Cc3ccc(F)cc3)CC2)c2cccnc2c1O [Example 114, 5-[4-[(4-fluorophenyl)methyl]piperazin-1-yl]sulfonyl-7-methyl-quinolin-8-ol] | + (a pIC50 of from about 4.5 to 6)
16 | Cc1cnccc1S(=O)(=O)c1ccc(O)c2ncccc12 [Example 27, 5-[(3-methyl-4-pyridyl)sulfonyl]quinolin-8-ol] | +++ (a pIC50 of above about 7)
17 | O=S(=O)(c1ccc(O)c2ncccc12)C1CCN(Cc2ccc(F)cc2)CC1 [Example 35, 5-[[1-[(4-fluorophenyl)methyl]-4-piperidyl]sulfonyl]quinolin-8-ol] | ++ (a pIC50 of from about great than 6 to 7)

Row | Structure (SMILES) | Activity range (pIC50, COMT inhibition)
18 | COCCCN1CCN(S(=O)(=O)c2ccc(O)c3ncccc23)CC1 [Example 89, 5-[4-(3-methoxypropyl)piperazin-1-yl]sulfonylquinolin-8-ol] | ++ (a pIC50 of from about great than 6 to 7)
19 | COc1ccc(S(=O)(=O)c2ccc(O)c3ncccc23)cc1 [Example 18, 5-(4-methoxyphenyl)sulfonylquinolin-8-ol] | +++ (a pIC50 of above about 7)
20 | O=S(=O)(c1cc(F)c(O)c2ncccc12)N1CCCC1 [Example 113, 7-fluoro-5-pyrrolidin-1-ylsulfonyl-quinolin-8-ol] | +++ (a pIC50 of above about 7)
21 | Cc1ccc(S(=O)(=O)c2cc(F)c(O)c3ncccc23)cc1 [Example 110, 7-fluoro-5-(p-tolylsulfonyl)quinolin-8-ol] | +++ (a pIC50 of above about 7)
22 | Cc1cc(S(=O)(=O)N(C)[C@H](C)c2ccccc2)c2cccnc2c1O [Example 115, 8-hydroxy-N,7-dimethyl-N-[(1R)-1-phenylethyl]quinoline-5-sulfonamide] | ++ (a pIC50 of from about great than 6 to 7)
23 | O=S(=O)(c1ccc(O)c2ncccc12)N1CCCC1c1ccccn1 (stereo not drawn) [Example 80, 5-[2-(2-pyridyl)pyrrolidin-1-yl]sulfonylquinolin-8-ol] | ++ (a pIC50 of from about great than 6 to 7)
24 | O=S(=O)(c1ccc(O)c2ncccc12)C1CCN(c2ccc(F)cc2)CC1 [Example 37, 5-[[1-(4-fluorophenyl)-4-piperidyl]sulfonyl]quinolin-8-ol] | ++ (a pIC50 of from about great than 6 to 7)
25 | CN(Cc1cccc(Cl)c1)S(=O)(=O)c1ccc(O)c2ncccc12 [Example 53, N-[(3-chlorophenyl)methyl]-8-hydroxy-N-methyl-quinoline-5-sulfonamide] | +++ (a pIC50 of above about 7)
26 | O=S(=O)(c1ccc(O)c2ncccc12)N1CCN(Cc2ccc(F)cc2)CC1 [Example 101, 5-[4-[(4-fluorophenyl)methyl]piperazin-1-yl]sulfonylquinolin-8-ol] | +++ (a pIC50 of above about 7)
27 | O=S(=O)(c1ccc(O)c2ncccc12)N1CCCCC1 [Example 63, 5-(piperidin-1-yl)sulfonylquinolin-8-ol] | +++ (a pIC50 of above about 7)
28 | N#Cc1ccccc1N1CCN(S(=O)(=O)c2ccc(O)c3ncccc23)CC1 [Example 90, 2-[4-[(8-hydroxy-5-quinolyl)sulfonyl]piperazin-1-yl]benzonitrile] | +++ (a pIC50 of above about 7)
29 | O=S(=O)(c1cccc(-c2ccncc2)c1)c1ccc(O)c2ncccc12 [Example 23, 5-[3-(4-pyridyl)phenyl]sulfonylquinolin-8-ol] | +++ (a pIC50 of above about 7)
30 | CCS(=O)(=O)c1ccc(O)c2ncccc12 [Example 33, 5-ethylsulfonylquinolin-8-ol] | + (a pIC50 of from about 4.5 to 6)
31 | O=S(=O)(c1ccc(O)c2ncccc12)N1CCCC1c1ccncc1 (stereo not drawn) [Example 79, 5-[2-(4-pyridyl)pyrrolidin-1-yl]sulfonylquinolin-8-ol] | ++ (a pIC50 of from about great than 6 to 7)
32 | C[C@@H]1CCCN1S(=O)(=O)c1cc(Cl)c(O)c2ncccc12 [Example 119, 7-chloro-5-[(2R)-2-methylpyrrolidin-1-yl]sulfonyl-quinolin-8-ol] | ++ (a pIC50 of from about great than 6 to 7)
33 | O=S(=O)(c1ccc(O)c2ncccc12)N1CCCCC1c1ccccc1 (stereo not drawn) [Example 61, 5-[(2-phenyl-1-piperidyl)sulfonyl]quinolin-8-ol] | ++ (a pIC50 of from about great than 6 to 7)
